From US20170029388A1, “Treatment of Neurodegenerative Diseases with Asparagine Endopeptidase (AEP) Inhibitors and Compositions Related Thereto” (INTERCONTINENTAL GREAT BRANDS LLC, priority 2014, published 2017)
Entries after “also recorded” stand apart in the source; their conditions may differ.

How the values were obtained:
[1] = target: T1, AEP in human B lymphoblastoid Pala cells (Homo sapiens, UniProt Q99538); assay: IC50 assays in intact Pala cells; type: cell-based; conditions: 2 hr incubation, residual AEP activity in lysate
T1 construct: human B lymphoblastoid pala cells, which are rich in endogenous AEP; endogenous in cells; host or cells: Pala cells (human B lymphoblastoid)
T1 sequence (Q99538 18-323): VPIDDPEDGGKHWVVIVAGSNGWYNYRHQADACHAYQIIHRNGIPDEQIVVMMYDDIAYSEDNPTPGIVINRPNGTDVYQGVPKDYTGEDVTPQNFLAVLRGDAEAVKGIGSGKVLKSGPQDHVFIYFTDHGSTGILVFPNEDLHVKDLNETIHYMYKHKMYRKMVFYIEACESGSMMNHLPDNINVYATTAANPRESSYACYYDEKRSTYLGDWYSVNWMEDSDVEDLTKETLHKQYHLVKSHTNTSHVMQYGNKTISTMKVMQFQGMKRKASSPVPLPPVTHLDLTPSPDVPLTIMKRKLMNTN
Description: The cells were incubated with inhibitors for 2 hrs then cells washed, harvested and lysed and the residual enzymatic activity was determined. Lysate was normalized by Bradford assay and the experiment was performed in triplicate and the mean results and SEM were plotted.
In an attempt to assess the activity of the compounds in intact cells, the compounds were incubated with human B lymphoblastoid pala cells, which are rich in endogenous AEP and have been used for inhibiting AEP in cellular assay.
Human B Lymphoblastoid Pala cells, which express high concentrations of AEP, were cultured in RPMI-1640, supplemented with 10% FBS, 2 mM L-Glutamine, 100 units/mL Penicillin, 100 μg/mL Streptomycin. Various concentrations of each compound were incubated with the Pala cells for 2 hr at 37° C. Cells were collected, washed twice with PBS and lysed in Lysis Buffer (20 mM Citric Acid, 60 mM Disodium Hydrogen Orthophosphate, 1 mM EDTA, 0.1% CHAPS, pH 5.8). The protein concentrations were normalized by Bradford assay and lysates were assayed with 5 μ,M Cbz-Ala-Ala-Asn-AMC. […] Data were analyzed with GraFit version 5.0.11 software package.

[2] = test system: Caco-2 monolayer; assay: Caco-2 monolayer permeability screen; type: in vitro ADME; conditions: for A -> B Papp / B -> A Papp / RE: Caco-2
Description: To explore the in vitro ADME profiles of the compounds, additional tests were conducted.

[3] = target: CYP3A4 (Homo sapiens, UniProt P08684); assay: CYP inhibition screening, CYP3A4-Midazolam; type: in vitro ADME
Sequence of CYP3A4 (P08684 whole entry): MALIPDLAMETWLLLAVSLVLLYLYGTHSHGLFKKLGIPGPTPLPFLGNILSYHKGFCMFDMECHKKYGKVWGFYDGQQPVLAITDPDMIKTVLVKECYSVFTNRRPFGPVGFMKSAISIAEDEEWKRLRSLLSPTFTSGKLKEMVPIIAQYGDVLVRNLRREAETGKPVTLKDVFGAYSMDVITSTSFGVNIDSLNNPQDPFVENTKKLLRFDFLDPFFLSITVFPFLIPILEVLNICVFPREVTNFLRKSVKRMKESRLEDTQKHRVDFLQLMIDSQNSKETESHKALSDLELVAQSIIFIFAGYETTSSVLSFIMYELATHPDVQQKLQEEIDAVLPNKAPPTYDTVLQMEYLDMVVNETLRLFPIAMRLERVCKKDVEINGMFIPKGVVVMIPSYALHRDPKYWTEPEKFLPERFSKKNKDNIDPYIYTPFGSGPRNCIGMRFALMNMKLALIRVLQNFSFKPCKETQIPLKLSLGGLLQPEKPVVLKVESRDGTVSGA

[4] = test system: CYP3A; assay: CYP inhibition screening, CYP3A-Testosterone; type: in vitro ADME
[5] = target: CYP2C9 (Homo sapiens, UniProt P11712); assay: CYP inhibition screening, CYP2C9; type: in vitro ADME
Sequence of CYP2C9 (P11712 whole entry): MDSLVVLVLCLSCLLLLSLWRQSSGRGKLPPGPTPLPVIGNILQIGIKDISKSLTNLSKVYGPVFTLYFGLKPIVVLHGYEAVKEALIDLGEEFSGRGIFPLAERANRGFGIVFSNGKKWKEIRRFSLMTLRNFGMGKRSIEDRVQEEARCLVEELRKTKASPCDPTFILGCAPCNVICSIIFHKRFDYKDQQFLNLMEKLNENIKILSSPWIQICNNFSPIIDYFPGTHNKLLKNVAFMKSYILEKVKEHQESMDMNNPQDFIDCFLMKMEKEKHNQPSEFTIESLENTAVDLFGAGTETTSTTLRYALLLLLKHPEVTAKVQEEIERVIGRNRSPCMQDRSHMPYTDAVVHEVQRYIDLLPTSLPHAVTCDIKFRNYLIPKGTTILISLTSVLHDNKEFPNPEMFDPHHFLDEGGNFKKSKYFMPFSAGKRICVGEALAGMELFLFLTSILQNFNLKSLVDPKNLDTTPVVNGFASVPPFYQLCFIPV

[6] = target: CYP2D6 (Homo sapiens, UniProt P10635); assay: CYP inhibition screening, CYP2D6; type: in vitro ADME
Sequence of CYP2D6 (P10635 whole entry): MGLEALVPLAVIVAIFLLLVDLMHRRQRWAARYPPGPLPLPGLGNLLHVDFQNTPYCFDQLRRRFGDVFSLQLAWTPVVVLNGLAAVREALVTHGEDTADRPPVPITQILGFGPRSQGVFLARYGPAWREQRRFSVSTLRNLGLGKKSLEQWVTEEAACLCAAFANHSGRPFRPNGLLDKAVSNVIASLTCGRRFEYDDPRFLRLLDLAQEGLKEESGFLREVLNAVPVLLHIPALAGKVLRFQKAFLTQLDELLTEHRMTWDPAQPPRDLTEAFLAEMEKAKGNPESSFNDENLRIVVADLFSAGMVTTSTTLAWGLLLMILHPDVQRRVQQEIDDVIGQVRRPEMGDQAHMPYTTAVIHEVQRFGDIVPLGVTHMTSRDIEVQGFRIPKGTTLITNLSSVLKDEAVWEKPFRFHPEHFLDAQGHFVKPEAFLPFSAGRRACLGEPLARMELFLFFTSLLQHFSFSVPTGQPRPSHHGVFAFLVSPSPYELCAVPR

[7] = test system: 5XFAD mice; assay: Synaptic density, spine density and LTP in 5XFAD mice; type: in vivo, mouse
Text: A. Representative electron microscopy of the synaptic structures. Arrows indicate the synapses. B. Quantitative analysis of the synaptic density in vehicle—and compound 11-treated 5XFAD mice. Data are shown as mean ±SEM (n=3 mice per group). * p <0.01. C. […] Scale bar, 5 μm. D. Quantitative analysis of the spine density. […] E. Long-term potentiation (LTP) of fEPSPs was induced by 3× TBS (4 pulses at 100 Hz, repeated 3 times with a 200-ms interval). Shown traces are representative fEPSPs recorded at the time point 1 and 2 (vehicle treated), 3 and 4 (compound 11-treated mouse). […] Data are presented as mean±SEM. *p<0.05 vs vehicle-treated mice. F. Synaptic transmission assessed by input/output (I/O) relation between stimuli intensity and fEPSP slope. I/O curves obtained in hippocampal slices prepared from vehicle- and compound 11-treated 5XFAD mice.
Synaptic dysfunction is the early feature of AD and is believed to be the basis of cognitive impairment. 5XFAD mice show decreased synaptic density compared to non-transgenic control mice. […] The density of dendritic spines along individual dendrites of pyramidal neurons was assessed by Golgi stain. […] Long-term potentiation (LTP) is a measure of synaptic plasticity that underlies learning and memory. 5XFAD mice have decreased LTP magnitude at Schaffer collateral-CA1 pathways.
Synaptic density was determined by electron microscopy as described previously (22). After deep anesthesia, mice were perfused transcardially with 2% glutaraldehyde and 3% paraformaldehyde in PBS. […]
Electrophysiological analysis was carried out as previously described (23). […] The field excitatory post-synaptic potentials (fEPSPs) were recorded in CA1 stratum radiatum by a glass microelectrode filled with a-CSF with resistance of 3-4 MEI The stimulation output (Master-8; AMPI, Jerusalem) was controlled by the trigger function of an EPC9 amplifier (HEKA Elektronik, Lambrecht, Germany). fEPSPs were recorded under current-clamp mode. […] The magnitudes of LTP are expressed as the mean percentage of baseline fEPSP initial slope. […]

[8] = PAMPA
[9] = test system: C57BL/6J mice; assay: Acute and chronic toxicity in C57BL/6J mice; conditions: 100 mg/kg

| SMILES | A -> B Papp [2] | B -> A Papp [2] | RE [2] | CYP inhibition, CYP3A4-Midazolam ([3]; test concentration 3 μM) [%] | CYP inhibition, CYP3A4-Midazolam ([3]; test concentration 10 μM) [%] | CYP inhibition, CYP3A-Testosterone ([4]; test concentration 3 μM) [%] | CYP inhibition, CYP3A-Testosterone ([4]; test concentration 10 μM) [%] | CYP inhibition, CYP2C9 ([5]; test concentration 3 μM) [%] | CYP inhibition, CYP2C9 ([5]; test concentration 10 μM) [%] | CYP inhibition, CYP2D6 ([6]; test concentration 3 μM) [%] | CYP inhibition, CYP2D6 ([6]; test concentration 10 μM) [%] | Pe [8] | further results |
| --- | --- | --- | --- | --- | --- | --- | --- | --- | --- | --- | --- | --- | --- |
| Sc1nnc(Nc2ccccc2)s1 [Compound BB1] |  |  |  |  |  |  |  |  |  |  |  |  | IC50 in intact Pala cells [1]: slightly larger IC50 values |
| Nc1ccc(N2CCOCC2)c2nonc12 [Compound 11] | 35.0 10^−6 cm · s^−1 | 7.0 10^−6 cm · s^−1 | 0.2 | 3.6 | 8.0 | 4.1 | 21.6 | 4.3 | 5.6 | 7.8 | 21.9 | >25 10^−6 cm · s^−1 | Caco-2 permeability (in words) [2]: highly permeable; density of dendritic spines (Golgi stain) ([7]; 5XFAD mice): increased; also recorded: reversed; density of synapse (electron microscopy) ([7]; CA1 area, 5XFAD mice): notably increased; long-term potentiation (LTP) magnitude ([7]; Schaffer collateral-CA1, 5XFAD mice): significantly reversed the LTP deficits; also recorded: enhanced; blood-brain barrier permeability (in words) [8]: able to cross the blood-brain barrier; systemic toxicity [9]: does not exhibit systemic toxicity; body weight ([9]; oral gavage, 30-day period): no significant change; complete blood count (CBC) parameters ([9]; oral gavage, 30-day period): within the normal range; immunohistochemical staining, drug-treated vs vehicle-treated ([9]; oral gavage, 30-day period): no major differences |
| Cn1c(=O)[nH]c(=O)c2c1nc(S)n2CC(O)COc1ccc(Cl)cc1 (stereo not shown) [Compound 38] | 1.1 10^−6 cm · s^−1 | 20.3 10^−6 cm · s^−1 | 18.2 | 7.3 | 10.4 | −6.0 | 2.4 | 15.6 | 17.1 | −5.4 | 0.9 | 0.007 10^−6 cm · s^−1 |  |
